Reference: US20160184276A1, “Sphingosine kinase inhibition for the treatment and prevention of obstetrical disorders” (priority 2014, published 2016)
“Also recorded” adds a separate entry of the source.

Tests used:
[1] = test system: LPS-stimulated timed pregnant mice; assay: LPS-induced preterm birth in timed pregnant mice (in vivo assay)
Procedure: (§1) In Vivo Assay. A total of 17 timed pregnant embryonic day (E) 15.5 mice, weighing between 28 and 35 g, were used for in vivo studies. The control group (n=7) was injected intraperitoneally (ip) with 50 mg/kg lipopolysaccharide (LPS) (serotype 026:B6; Sigma) dissolved in 0.5 ml PBS at T=0 and 50 μl PEG 400 at T=1 and 7 h. The treatment group (n=7) was also injected ip with the same dose of LPS and then injected with 50 mg/kg SphK inhibitor (SKI II) dissolved in PEG 400 at T=1 and 7 h. The sham group (n=3) was injected ip with 0.5 ml PBS at T=0 and 50 μl PEG 400 at T=1 and 7 h. After injections at T=7 h, mice were continuously observed for time of delivery and number of pups dropped. […] All mice were euthanized by carbon dioxide asphyxiation and necropsied to confirm pregnancy and the number of pups retained in utero was recorded. The retained placentas and uteri were harvested and stored at −80° C. or in 10% neutral buffered formalin at room temperature.
Statistical Analysis. For in vivo studies, the effect of SKI II on the percent of LPS stimulated mice delivering and on the percent of pups rescued from spontaneous abortion was evaluated with the Chi square and Fisher exact tests, respectively. Differences in rates of PTB and rates of pups delivered over time were evaluated with log-rank (Mantel-Cox) or Gehan-Breslow-Wilcoxon test. The U-test along with Analysis of Variance (ANOVA) and Tukey's multiple comparison test were used to evaluate differences in inflammatory infiltration in histologic sections. Differences in mean expression of cytokine proteins in immunoblots and in immunohistochemistry were determined using ANOVA with Tukey's multiple comparison test.

[2] = test system: Tnfα, Il-1β, Il-6 and ECE-1 in placentas; assay: Western blot analysis of placental lysates from LPS-stimulated mice; format: in vivo; conditions: SKI II treated group vs LPS control group
Procedure: as §1
Gel Electrophoresis. Frozen placentas were allowed to thaw on ice. Tissues were homogenized in 0.25 ml ice cold lysis buffer, using a Polytron homogenizer. The samples were homogenized on ice for 2 min at 15 min intervals. This procedure was continued for 2 h and the final homogenates were centrifuged at 10,000×g for 10 min. Volumes of supernatant containing […] of protein based on BCA assay, using bovine serum albumin as standard, were diluted in_NuPAGE® LDS sample buffer and the samples were heated at 95° C. for 5 minutes. Bis-Tris gels were used for protein separation. Gel electrophoresis was carried out in an XCell SureLock Mini-Cell apparatus. The gels were allowed to run for 45 minutes with MOPS running buffer at 125 mA and 200V. Proteins were then transferred to a polyvinylidene difluoride (PVDF) membrane, using an XCell II Blot Module. Transfer was carried out for 2 h on ice at a 170 mA current and a constant voltage of 30 V with NuPAGE transfer buffer
Western Blot Analysis. […] The membranes were analyzed for different proteins using their respective primary antibodies, i.e. TNFα, IL-1β, IL-6, IL-10 and ECE-1 diluted in the blocker solution overnight at 4° C. […] They were then treated with ECL Plus western blotting detection system and the chemiluminescence produced by the chemical reaction was detected by exposure to an autoradiography film. […] The protein content was quantified using Image J software (from NIH). […]
(§2) Statistical Analysis. For in vivo studies, the effect of SKI II on the percent of LPS stimulated mice delivering and on the percent of pups rescued from spontaneous abortion was evaluated with the Chi square and Fisher exact tests, respectively. […]

[3] = test system: Tnfα, Il-1β, Il-6 in placental labyrinth; assay: Immunohistochemistry of cytokines in placental labyrinth; format: in vivo, mice; conditions: SKI II vs LPS
Procedure: as §1
Immunohistochemistry (IHC). Formalin fixed paraffin-embedded tissue sections were used for IHC. The sections were deparaffinized by washing in xylene for 3 min. They were then rehydrated by washing in 100% isopropyl alcohol (2 changes), 95% alcohol, 80% alcohol, 70% alcohol and distilled water for 3 min each. The sections were incubated for 5 min with peroxidase block (3% hydrogen peroxide in water) and washed in distilled water for 3 min. […] Image-Pro Premier DAB analysis software was used for quantification of the results. […]
Statistical Analysis. For in vivo studies, the effect of SKI II on the percent of LPS stimulated mice delivering and on the percent of pups rescued from spontaneous abortion was evaluated with the Chi square and Fisher exact tests, respectively. Differences in rates of PTB and rates of pups delivered over time were evaluated with log-rank (Mantel-Cox) or Gehan-Breslow-Wilcoxon test. […] Differences in mean expression of cytokine proteins in immunoblots and in immunohistochemistry were determined using ANOVA with Tukey's multiple comparison test.

[4] = test system: inflammatory cells (neutrophils) in placental labyrinth; assay: Histology (H & E): inflammatory cell infiltration of placental labyrinth; format: in vivo; conditions: SKI II vs LPS-induced mice; P<0.05
Procedure: as §1, with “The retained placentas and uteri were harvested and stored at −80° C. or in 10% neutral buffered formalin at room temperature.” left out
Histology. […] The number of polymorphonuclear neutrophils (PMNs) were counted in the three fields and the average value was recorded. Based on the average number of neutrophils per 400× field recorded, the slides were assigned grades as follows: 0:0-5 cells, 1:6-50 cells, 2:51-100 and 3:greater than 100. […]
as §2

## Oc1ccc(Nc2nc(-c3ccc(Cl)cc3)cs2)cc1 [SKI II]
[1]; 97 pups of LPS control and SKI II groups
  Macroscopic congenital anomalies in pups: no macroscopic congenital anomalies
[1]; LPS 50 mg/kg, SKI II 50 mg/kg at T=1 and 7 h, 1 out of 7 mice, 24 h
  Percent of mice delivered prematurely: 14%
[1]; LPS 50 mg/kg, SKI II 50 mg/kg at T=1 and 7 h, 2 out of 50 pups, 24 h
  Percent of pups dropped prematurely: 4%
[1]; SKI II treated vs LPS control dams, P<0.0001
  Rate of pup survival (Kaplan-Meier survival curves, log rank test): statistically significant difference; also recorded: significantly improved
[1]; observed throughout the study
  Litter size, fetal growth and development: No significant changes
[2]
  ECE-1 expression in placenta (Western blot): clearly suppressed; also recorded: significantly suppressed
[2]; P<0.05
  Il-1β expression in placental lysates (Western blot): reduced; also recorded: significantly suppressed
  Il-6 expression in placental lysates (Western blot): reduced; also recorded: significantly suppressed
  Tnfα expression in placental lysates (Western blot): reduced; also recorded: significantly suppressed
[3]; P<0.0001
  Placental labyrinthine level of Il-1β (immunohistochemistry): significantly reduced; also recorded: significantly suppressed
  Placental labyrinthine level of Tnfα (immunohistochemistry): significantly reduced; also recorded: significantly suppressed
[3]; P<0.01
  Placental labyrinthine level of Il-6 (immunohistochemistry): significantly reduced; also recorded: significantly suppressed
[4]
  Inflammatory cell infiltrate in placental labyrinth: significantly reduced; also recorded: subsides significantly
